Source: patent US20240368191A1, “HETEROCYCLIC COMPOUNDS AND USES THEREOF” (Kumquat Biosciences Inc., priority 2021, published 2024)

Tests used:
K-Ras G12S = molecular target: T1, K-Ras G12S (Homo sapiens, UniProt P01116, G12S); experiment: HTRF assay, K-Ras G12S / SOS1 interaction; format: biochemical; conditions: IC50 against K-Ras G12D divided by IC50 against K-Ras G12S
T1 construct: made in house; host or cells: E. coli, e.g. BL21 (DE3)
Description: This assay can be also used to assess a selective inhibition or reduction of signaling output of a mutant Ras protein relative to a wildtype, or relative to a different mutant Ras protein. For example, the equilibrium interaction of wildtype Kras or K-Ras mutant (e.g., wildtype or a mutant thereof including those mentioned in Example 6) with SOS1 (e.g., hSOS1) can be assessed as a proxy or an indication for a subject compound's ability to bind and inhibit Ras protein. HTRF assay detects from (i) a fluorescence resonance energy transfer (FRET) donor (e.g., antiGST-Europium) that is bound to GST-tagged K-Ras mutant to (ii) a FRET acceptor (e.g., anti-6His -XL665) bound to a His -tagged hSOS1.
The assay buffer can contain ˜5 mM HEPES pH 7.4, ˜150 mM NaCl, ˜1 mM DTT, 0.05% BSA and 0.0025% (v/v) Igepal. A Ras working solution is prepared in an assay buffer containing typically a suitable amount of the protein construct (e.g., GST-tagged K-Ras mutant) and the FRET donor (e.g., antiGST-Eu(K) from Cisbio, France). A SOS1 working solution is prepared in an assay buffer containing suitable amount of the protein construct (e.g., His -hSOS1) and the FRET acceptor (e.g., anti-6His -XL665 from Cisbio, France). A suitable amount of the protein construct will depend on the range of activity or range of IC50 values being detected or under investigation. For detecting IC50 within a range of 500 nM, the protein constructs of the same range of molarity can be utilized.
A fixed volume of DMSO with or without test compound is transferred into a 384-well plate. Ras working solution is added to all wells of the test plate. SOS1 working solution is added to all wells except for those that are subsequently filled the inhibitor control solution. Upon incubation for about 10 minutes or longer, the fluorescence is measured with a M1000Pro plate reader (Tecan) using HTRF detection (excitation 337 nm, emission 1: 620 nm, emission 2: 665 nm). Compounds are tested in duplicates at different concentrations (for example, 10 μM, 2.5 μM, 0.63 μM, 0.16 μM, 0.04 μM, 0.01 μM test compound). The ratiometric data (i.e., emission 2 divided by emission 1) is used to calculate IC50 values against Ras using GraphPad Prism (GraphPad software). Following this general procedure, samples were tested with or without a subject compound disclosed herein including compounds exemplified in Table 3 to assess their abilities to inhibit K-Ras G12S relative to another mutant (e.g., K-Ras G12D). Signaling output measured in terms of IC50 values can be obtained, a ratio of IC50 against one mutant relative to another mutant can be calculated. For instance, a selective reduction of K-Ras G12S signaling output can be evidenced by a ratio greater than one. In particular, a selective reduction of K-Ras G12S signaling relative to K-Ras G12D signaling is evidenced as the ratio of IC50 (against K-Ras G12D) to IC50 (against K-Ras G12S) is greater than 1.

[1] = molecular target: T2, KRAS G12D 1-169 (His-tagged, GDP-loaded) (Homo sapiens, UniProt P01116, G12D); experiment: Covalent modification of KRAS protein by intact-protein LC-MS; format: binding; conditions: comparable or same conditions as K-Ras G12S
T2 construct: His -tagged GDP-loaded G12D 1-169; made in house; host or cells: E. coli, e.g. BL21 (DE3)
Outline: (§1)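 Percent modification is derived from deconvoluted intact-protein LC-ESI-MS peak intensities of adducted versus unmodified KRAS. GDP-loaded His-tagged KRAS 1-169 (~2 μM, HEPES buffer at physiological conditions) was exposed to compound for 24 hrs at room temperature, then quenched with formic acid before C4 reversed-phase separation.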

[2] = molecular target: T3, KRAS G12S 1-169 (His-tagged, GDP-loaded) (Homo sapiens, UniProt P01116, G12S); experiment: as above; format: binding; conditions: KRAS G12S, 24 hr
T3 construct: His -tagged GDP-loaded G12S 1-169; made in house; host or cells: E. coli, e.g. BL21 (DE3)
Outline: as §1

[3] = Metabolic (microsomal) stability assay; conditions: pooled liver microsomes, pH 7.4
Description: The metabolic stability of a test compound is assayed at 37° C. using pooled liver microsomes (mouse or human liver microsomes). An aliquot of 10 μL of 50 μM test compound is mixed with 490 μL of 0.611 mg/mL liver microsomes, then 50 μL of the mixtures are dispensed to the 96 well tubes and warmed at 37° C. for 10 minutes. The reactions are initiated by adding 50 μL of the pre-warmed NADPH regeneration system solution (add 1.2 μL solution, 240 μl solution B, mix with 10.56 ml KPBS) and then incubated at 37° C. The final incubation solution contains 100 mM potassium phosphate (pH 7.4), 1.3 mM NADP+, 3.3 mM glucose 6-phosphate, 0.4 Unit/mL of glucose 6-phosphate dehydrogenase, 3.3 mM magnesium chloride, 0.3 mg/mL liver microsomes and 0.5 μM test article. After 0, 15, 30 and 60 minutes in a shaking incubator, the reactions are terminated by adding 100 μL of acetonitrile containing 200 nM buspirone as an internal standard. All incubations are conducted in duplicate. […] Samples are then centrifuged at 3500 rpm for 10 minutes (4° C.) using Sorvall Legend XRT Centrifuge (Thermo Scientific, GE). Supernatants (40 μL) are transferred into clean 96-deep well plates. Each well is added with 160 μL of ultrapure water (Milli-Q, Millipore Corporation) with 0.1% (v/v) formic acid (Fisher Chemical), mixed thoroughly and subjected to LC/MS/MS analysis in MRM positive ionization mode.
All the samples are measured using a mass spectrometer (QTrap 5500 quadrupole/ion trap) coupled with a Shimadzu HPLC system. The HPLC system consisted of a Shimadzu series degasser, binary quaternary gradient pumps, column heater coupled to an autosampler, and a Phenomenex Gemini-NX, C18, 3.0 μm or Phenomenex Lunar, C8, 5.0 μM HPLC column (Phenomenex, Torrance, CA), and eluted with a mobile phase gradient consisting of Solution A (0.1% formic acid water) and Solution B (0.1% formic acid acetonitrile). The column temperature is maintained at 40° C. All the analytes are detected with positive-mode electrospray ionization (ES+).
The half-life for the metabolic degradation of the test compound is calculated by plotting the time-course disappearance of the test compound during the incubation with liver microsomes. Each plot is fitted to a first-order equation for the elimination of the test compound (% remaining compound) versus time using non-linear regression (Equation 1).
where Ct is the mean relative substrate concentration at time t and C0 is the initial concentration (0.5 μM) at time 0. Note that the area ratio of the substrate peak to an internal standard peak is proportional to the analyte concentration and is used for regression analysis to derive a value of k.

A549 cells = experiment: Cell proliferation assay (CellTiter-Glo), K-Ras G12S cells; format: cell-based; conditions: A549 cells; Comparative Compound A lacking the warhead vs Compound B
Description: A549 (ATCC CRL-185) and LS123 (ATCC CRL-255) cell lines comprise a G12S mutation and can be used to assess Ras cellular signaling in vitro, e.g., in response to the compounds herein. A549 culture medium is prepared with RPMI-1640 and 10% heat-inactivated FBS. LS123 culture medium is prepared with RPMI-1640 and 10% heat-inactivated FBS. A CellTiter-Glo (CTG) luminescent based assay (Promega) is used to assess growth of the cells, as a measurement of the ability of the compounds herein to inhibit Ras signaling in the cells. The cells (e.g., 800 per well) are seeded in their respective culture medium in standard tissue culture-treated 384-well format plates (Falcon #08-772-116) or ultra-low attachment surface 384-well format plates (S-Bio #MS-9384WZ). The day after plating, cells are treated with a dilution series (e.g., a 10 point 3-fold dilution series) of the compounds herein (e.g., approximately 40 μl final volume per well). Cell viability can be monitored (e.g., approximately 6 days later) according to the manufacturer's recommended instructions, where the CellTiter-Glo reagent is added (e.g., approximately 10 μl), vigorously mixed, covered, and placed on a plate shaker (e.g., approximately for 20 min) to ensure sufficient cell lysis prior to assessment of luminescent signal. The IC50 values are determined using the four parameter fit. The resulting IC50 value is a measurement of the ability of the compounds herein to reduce cell growth of Ras-driven cells (e.g., tumor cell lines) in vitro and/or in vivo.

Row | Compound | Ratio of IC50 KRAS G12D vs. IC50 KRAS G12S (K-Ras G12S) | covalent labeling of K-Ras G12D [1] | % G12S Modification at 24 hr. [2] | half-life at 0.5 μM [3] | Compound IC50 Ratio IC50 (Cpd A):IC50 (Cpd B) (A549 cells)
1 | 2-amino-4-(6-chloro-4-(8-(5- chloro-1H-1,2,4-triazole-1- carbonyl)-3,8-diazabicyclo- [3.2.1]octan-3-yl)-8-fluoro-2- (((2R,7aS)-2-fluorotetrahydro- 1H-pyrrolizin-7a(5H)-yl)meth- oxy)quinazolin-7-yl)-7-fluoro- benzo[b]thiophene-3-carbonitrile [Compound A194] | A (A: indicates that the ratio of IC50 against KrasG12D vs. IC50 against KrasG12S is 1-fold or greater) | essentially no detectable labeling | ++ (++ indicates between about 1%-20% labelling) | – | –
2 | N#CCc1ncn(C(=O)N2CC3(C2)CN(c2nc(OC[C@@]45CCCN4C[C@H](F)C5)nc4c(F)c(-c5ccc(F)c6sc(N)c(C#N)c56)c(Cl)cc24)CCO3)n1 [Compound A110, 2-amino-4-(6-chloro-4-(2-(3-(cyanomethyl)-1H-1,2,4-triazole-1-carbonyl)-5-oxa-2,8-diazaspiro[3.5]nonan-8-yl)-8-fluoro-2-(((2R,7aS)-2-fluoro-tetrahydro-1H-pyrrolizin-7a(5H)-yl)methoxy)quinazolin-7-yl)-7-fluorobenzo[b]thio-phene-3-carbonitrile] | – | essentially no detectable labeling | – | > 10 min | >4 (A549 cells)
3 | CN1CCC[C@H]1COc1nc(N2CCOC3(CN(C(=O)n4cncn4)C3)C2)c2cc(Cl)c(-c3ccc(F)c4sc(N)c(C#N)c34)c(F)c2n1 [Compound A137, 4-(4-(2-(1H-1,2,4-triazole-1-carbonyl)-5-oxa-2,8-diaza-spiro[3.5]nonan-8-yl)-6-chloro-8-fluoro-2-(((S)-1-methylpyr-rolidin-2-yl)methoxy)quinaz-olin-7-yl)-2-amino-7-fluoro-benzo[b]thiophene-3-carbonitrile] | – | essentially no detectable labeling | – | – | >4 (A549 cells)
4 | N#Cc1cn(C(=O)N2CCC(Nc3nc(OC[C@@]45CCCN4C[C@H](F)C5)nc4c(F)c(-c5ccc(F)c6sc(N)nc56)c(Cl)cc34)CC2)cn1 [Compound A160, 1-(4-((7-(2-amino-7-fluorobenzo-[d]thiazol-4-yl)-6-chloro-8-fluoro-2-(((2R,7aS)-2-fluoro-tetrahydro-1H-pyrrolizin-7a(5H)-yl)methoxy)quinazolin-4-yl)amino)piperidine-1-car-bonyl)-1H-imidazole-4-carbo-nitrile] | A (A: indicates that the ratio of IC50 against KrasG12D vs. IC50 against KrasG12S is 1-fold or greater) | – | – | – | –
5 | Nc1nc2c(-c3c(Cl)cc4c(N[C@H]5C[C@H]6CC[C@@H](C5)N6C(=O)n5cncn5)nc(OC[C@@]56CCCN5C[C@H](F)C6)nc4c3F)ccc(F)c2s1 [Compound A207, ((1R,3r,5S)-3-((7-(2-amino-7-fluorobenzo[d]thiazol-4-yl)-6-chloro-8-fluoro-2-(((2R,7aS)-2-fluorotetrahydro-1H-pyrrolizin-7a(5H)-yl)methoxy)quinazolin-4-yl)amino)-8-azabicyclo[3.2.1]-octan-8-yl)(1H-1,2,4-triazol-1-yl)methanone] | A (A: indicates that the ratio of IC50 against KrasG12D vs. IC50 against KrasG12S is 1-fold or greater) | – | +++ (+++ indicates greater than 20% labelling) | – | –
6 | Cc1nc(C(C)C)nn1C(=O)N1CC2(C1)CN(c1nc(OC[C@@]34CCCN3C[C@H](F)C4)nc3c(F)c(-c4ccc(F)c5sc(N)c(C#N)c45)c(Cl)cc13)CCO2 [Compound A208, 2-amino-4-(6-chloro-8-fluoro-2-(((2R,7aS)-2-fluorotetrahydro-1H-pyrrolizin-7a(5H)-yl)meth-oxy)-4-(2-(3-isopropyl-5-meth-yl-1H-1,2,4-triazole-1-carbon-yl)-5-oxa-2,8-diazaspiro[3.5]-nonan-8-yl)quinazolin-7-yl)-7-fluorobenzo[b]thiophene-3-carbonitrile] | A (A: indicates that the ratio of IC50 against KrasG12D vs. IC50 against KrasG12S is 1-fold or greater) | – | – | – | –
7 | N#Cc1c(N)sc2c(F)ccc(-c3c(Cl)cc4c(N[C@H]5C[C@H]6CC[C@@H](C5)N6C(=O)n5cncn5)nc(OC[C@@]56CCCN5C[C@H](F)C6)nc4c3F)c12 [Compound A257, 4-(4-(((1R,3r,5S)-8-(1H-1,2,4-triazole-1-carbonyl)-8-aza-bicyclo-[3.2.1]octan-3-yl)-amino)-6-chloro-8-fluoro-2-(((2R,7aS)-2-fluorotetrahydro-1H-pyrrolizin-7a(5H)-yl)meth-oxy)quinazolin-7-yl)-2-amino-7-fluorobenzo[b]thiophene-3-carbonitrile] | – | essentially no detectable labeling | ++ (++ indicates between about 1%-20% labelling) | – | –
8 | N#Cc1c(N)sc2c(F)ccc(-c3c(Cl)cc4c(N5CCN(C(=O)n6cncn6)CC(F)(F)C5)nc(OC[C@@]56CCCN5C[C@H](F)C6)nc4c3F)c12 [Compound A280, 2-amino-4-(6-chloro-4-(6,6-difluoro-4-(1H-1,2,4-triazole-1-carbonyl)-1,4-diazepan-1-yl)-8-fluoro-2-(((2R,7aS)-2-fluoro-tetrahydro-1H-pyrrolizin-7a(5H)-yl)methoxy)quinazolin-7-yl)-7-fluorobenzo[b]thio-phene-3-carbonitrile] | – | essentially no detectable labeling | +++ (+++ indicates greater than 20% labelling) | – | –
9 | (4-((7-(2-amino-7-fluorobenzo- [d]thiazol-4-yl)-6-chloro-8- fluoro-2-(((2R,7aS)-2-fluoro- tetrahydro-1H-pyrrolizin- 7a(5H)-yl)methoxy)quinazolin- 4-yl)amino)piperidin-1-yl)(2- chloro-1H-imidazol-1-yl)meth- anone [Compound A159] | A (A: indicates that the ratio of IC50 against KrasG12D vs. IC50 against KrasG12S is 1-fold or greater) | – | – | – | –
